Measured values published in patent publication US20250304547A1, “Sulfur-Containing Lipids” (NanoVation Therapeutics Inc., priority 2022, published 2025).

Tests used:
[1] = test system: FVII gene; conditions: mice, siRNA formulations of the amino lipid; cited from earlier work
[2] = test system: liver; assay: In vivo transfection of firefly luciferase mRNA-LNP, luciferase assay of liver; conditions: CD-1 mice, intravenous, 4 hours post-administration, mRNA LNP 50/10/38.5/1.5 mol %, N/P 6
Description: (§1) Lipids used in the formulation, nor-MC3, 4, DSPC, cholesterol, and PEG-DMG, were dissolved in ethanol at the appropriate ratios to a final concentration of 10 mM total lipid. Nucleic acid (mRNA) was dissolved in an appropriate buffer such as 25 mM sodium acetate pH 4 or sodium citrate pH 4 to a concentration necessary to achieve the appropriate amine-to-phosphate ratios. The aqueous and organic solutions were mixed using a rapid-mixing device as described in Kulkami et al., 2018, ACS Nano, 12:4787 and Kulkami et al., 2017, Nanoscale, 36:133347 (each incorporated herein by reference) at a flow rate ratio of 3:1 (v/v; respectively) and a total flow rate of 20 mL/min. The resultant mixture was dialyzed directly against 1000-fold volume of PBS pH 7.4. All formulations were concentrated using an Amicon™ centrifugal filter unit and analysed using the methods described below.
(§2) LNP-mRNA encoding firefly luciferase were injected intravenously (tail-vein) into 6-8 week old CD-1 mice. Four hours following injection, the animals were euthanized and the liver and spleen were isolated. Tissue was homogenized in Glo Lysis™ buffer and a luciferase assay performed using the Steady Glo Luciferase™ assay kit (as per manufacturers recommendations).

[3] = Particle size analysis of LNPs by dynamic light scattering; format: physicochemical; conditions: firefly luciferase mRNA LNP, ionizable lipid/DSPC/chol/PEG-DMG 50/10/38.5/1.5 mol %; for polydispersity index (PDI): N/P 6; for particle size (number-weighted average diameter): N/P 6, in PBS
Description: as §1
Particle size analysis of LNPs in PBS was carried out using backscatter measurements of dynamic light scattering with a Malvern Zetasizer™ (Worcestershire, UK). The reported particle sizes correspond to the number-weighted average diameters (nm). Total lipid concentrations were determined by extrapolation from the cholesterol content, which was measured using the Cholesterol E-Total Cholesterol Assay (Wako Diagnostics, Richmond, VA) as per the manufacturer's recommendations. Encapsulation efficiency of the formulations was determined using the Quant-iT RiboGreen™ Assay kit (Invitrogen, Waltham, MA). Briefly, the total mRNA content in solution was measured by lysing lipid nanoparticles in a solution of Tris-EDTA (TE) containing 2% Triton Tx-100, and free […] in solution (external to LNP) was measured based on the RiboGreen™ fluorescence in a TE solution without Triton. Total mRNA content in the formulation was determined using a modified Bligh-Dyer extraction procedure. Briefly, LNP formulations containing mRNA were dissolved in a mixture of chloroform, methanol, and PBS that results in a single phase and the absorbance at 260 nm measured using a spectrophotometer.

[4] = Encapsulation efficiency, Quant-iT RiboGreen assay; format: physicochemical; conditions: firefly luciferase mRNA LNP, ionizable lipid/DSPC/chol/PEG-DMG 50/10/38.5/1.5 mol %, N/P 6
Description: as §1
Particle size analysis of LNPs in PBS was carried out using backscatter measurements of dynamic light scattering with a Malvern Zetasizer™ (Worcestershire, UK). […] Total lipid concentrations were determined by extrapolation from the cholesterol content, which was measured using the Cholesterol E-Total Cholesterol Assay (Wako Diagnostics, Richmond, VA) as per the manufacturer's recommendations. Encapsulation efficiency of the formulations was determined using the Quant-iT RiboGreen™ Assay kit (Invitrogen, Waltham, MA). […]

[5] = test system: spleen; assay: In vivo transfection of firefly luciferase mRNA-LNP, luciferase assay of spleen; conditions: CD-1 mice, intravenous, 4 hours post-administration, mRNA LNP 50/10/38.5/1.5 mol %, N/P 6
Description: as §1, §2

Compound | ED50 for FVII gene silencing [1] [mg/kg] | luminescence intensity/mg of liver, relative to the nor-MC3 formulation [2] | polydispersity index (PDI) [3] | particle size (number-weighted average diameter) [3] | entrapment / encapsulation efficiency [4] [%] | luminescence intensity/mg of spleen, relative to the nor-MC3 formulation [5]
CCCCC/C=C\C/C=C\CCCCCCCCC1(CCCCCCCC/C=C\C/C=C\CCCCC)OCC(CCN(C)C)O1 (stereo not drawn) [KC2] | 0.1 | – | – | – | – | –
CCCCCSCSCCCCCCCCC1(CCCCCCCCSCSCCCCC)OCC(CCN(C)C)O1 (stereo not drawn) [Lipid 4, 2-(2,2-bis(8-(((pentylthio)methyl)thio)octyl)-1,3-dioxolan-4-yl)-N,N-dimethyl-ethan-1-amine] | – | trend was reversed in the liver | about 0.090 | about 50.0 nm | ~90 | higher luminescence intensity in the spleen
nor-MC3 [reference compound] | – | – | about 0.075 | about 39.9 nm | 94 | –
